Test results published in publication PMC7926675, “Rainbow Trout (Oncorhynchus mykiss) Na^+/H^+ Exchangers tNhe3a and tNhe3b Display Unique Inhibitory Profiles Dissimilar from Mammalian NHE Isoforms” (International Journal of Molecular Sciences, 2021).

How the values were obtained:
[1] = biological target: T1, tNhe3b (trout Na+/H+ exchanger Nhe3b) (Oncorhynchus mykiss, UniProt B6VDZ5); assay: two-pulse ammonium chloride acid-load pHi recovery assay (BCECF) in stably transfected AP-1 cells; significant only at […]; format: cell-based
T1 construct: GFP-tagged tNhe3b (cDNA identical to FJ376630.1) stably expressed in NHE-deficient AP-1 cells
T1 sequence (B6VDZ5 1-842): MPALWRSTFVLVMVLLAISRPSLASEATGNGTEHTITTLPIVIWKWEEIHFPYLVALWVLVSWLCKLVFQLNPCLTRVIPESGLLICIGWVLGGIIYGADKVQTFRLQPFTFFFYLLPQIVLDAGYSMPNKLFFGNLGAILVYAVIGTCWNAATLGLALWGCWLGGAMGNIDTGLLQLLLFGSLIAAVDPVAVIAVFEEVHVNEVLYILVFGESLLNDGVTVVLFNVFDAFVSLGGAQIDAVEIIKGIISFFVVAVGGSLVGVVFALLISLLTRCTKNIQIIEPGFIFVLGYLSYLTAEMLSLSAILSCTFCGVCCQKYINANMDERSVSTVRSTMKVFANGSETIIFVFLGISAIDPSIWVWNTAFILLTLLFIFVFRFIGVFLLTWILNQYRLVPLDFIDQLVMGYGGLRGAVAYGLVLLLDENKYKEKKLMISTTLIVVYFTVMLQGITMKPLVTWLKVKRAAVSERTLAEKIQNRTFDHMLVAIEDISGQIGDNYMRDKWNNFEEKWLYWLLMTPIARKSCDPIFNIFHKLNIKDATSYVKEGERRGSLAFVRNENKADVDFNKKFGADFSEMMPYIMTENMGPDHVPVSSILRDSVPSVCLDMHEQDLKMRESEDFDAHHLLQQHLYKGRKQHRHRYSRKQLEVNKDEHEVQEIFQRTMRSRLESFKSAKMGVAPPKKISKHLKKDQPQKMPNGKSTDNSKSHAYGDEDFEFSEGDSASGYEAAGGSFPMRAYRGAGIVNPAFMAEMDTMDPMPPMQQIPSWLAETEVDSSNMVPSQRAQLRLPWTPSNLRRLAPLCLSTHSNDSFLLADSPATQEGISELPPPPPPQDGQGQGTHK

[2] = biological target: T2, tNhe3a (trout Na+/H+ exchanger Nhe3a) (Oncorhynchus mykiss, UniProt A4GWV2); assay: two-pulse ammonium chloride acid-load pHi recovery assay (BCECF) in stably transfected AP-1 cells, background subtracted; format: cell-based
T2 construct: gene NHE3; GFP-tagged tNhe3a (cDNA identical to NM_001130995) stably expressed in NHE-deficient AP-1 cells
T2 sequence (A4GWV2 1-752): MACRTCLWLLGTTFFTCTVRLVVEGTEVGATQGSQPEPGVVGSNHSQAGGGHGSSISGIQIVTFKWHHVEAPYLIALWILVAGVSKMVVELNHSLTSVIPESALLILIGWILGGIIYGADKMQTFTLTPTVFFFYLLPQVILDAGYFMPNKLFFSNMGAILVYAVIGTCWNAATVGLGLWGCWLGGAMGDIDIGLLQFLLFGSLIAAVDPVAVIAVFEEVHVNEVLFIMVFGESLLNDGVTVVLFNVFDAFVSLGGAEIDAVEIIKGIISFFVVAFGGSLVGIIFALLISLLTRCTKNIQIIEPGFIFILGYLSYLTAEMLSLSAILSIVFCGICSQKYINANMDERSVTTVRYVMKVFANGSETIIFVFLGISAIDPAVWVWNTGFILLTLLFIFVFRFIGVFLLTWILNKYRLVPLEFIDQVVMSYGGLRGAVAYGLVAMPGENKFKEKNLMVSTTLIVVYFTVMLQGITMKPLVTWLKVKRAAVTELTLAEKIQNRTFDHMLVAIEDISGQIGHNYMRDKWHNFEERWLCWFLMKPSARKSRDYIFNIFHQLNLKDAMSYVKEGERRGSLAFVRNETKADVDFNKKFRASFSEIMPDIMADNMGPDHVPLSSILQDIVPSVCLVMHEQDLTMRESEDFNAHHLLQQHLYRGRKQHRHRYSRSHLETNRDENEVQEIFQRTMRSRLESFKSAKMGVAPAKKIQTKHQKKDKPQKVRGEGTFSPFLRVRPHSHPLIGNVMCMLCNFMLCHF

Structure (SMILES) | IC50 [1] | IC50 [2]
N=C(N)NC(=O)c1nc(Cl)c(N)nc1N [amiloride, N-amidino-3,5-diamino-6-chloropyrazinecarboxamide] | ~335 µM | ~9.3 µM
CCN(c1nc(N)c(C(=O)NC(=N)N)nc1Cl)C(C)C [EIPA] | – | ~44 µM
